We go through 29 molecules from patent US10703757B2, “Compounds and methods for CDK8 modulation and indications therefor” (Plexxikon Inc., priority 2016, dated 2020).

The structures appear in SMILES notation.

The subject of experiment [1] is CDK8 (TCF/LEF luciferase reporter in HCT116 cells). The experiment is described as follows: Cell based TCF/LEF reporter assay (HCT116+TCF/LEF luciferase). To be noted: Homo sapiens, HCT-116, 24 h. In a few lines: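 HCT116 cells stably carrying a TCF/LEF-luciferase reporter (endogenous mutant β-catenin), seeded overnight, then exposed to serial compound dilutions for 24 h at 37 °C. Luminescence normalized to CellTiter-Fluor viability signal. % inhibition relative to DMSO and 10 uM CCT251545 controls, with IC50 from nonlinear regression.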

Experiment [2] has as its system CDK8 (phosphorylation of STAT1 at serine 727 in A549 cells). In words: Cell based Phospho-STAT1 assay (IFNγ-stimulated A549 cells, AlphaLISA). The conditions noted are these: Homo sapiens, A549, A549 cells, phospho-STAT1 after IFNγ stimulation. In short, it runs like this:
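A549 cells given serial compound dilutions for 1 h at 37 °C, then stimulated with IFNγ at 10 ng/mL final for 30 min. Lysate STAT1 Ser727 phosphorylation measured by AlphaLISA; % inhibition vs stimulated/unstimulated DMSO controls, IC50 by nonlinear regression.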
On the technique in general: In Alpha technology, singlet oxygen from a donor bead excites a nearby acceptor bead.

In general, IC50 refers to the concentration needed to halve the response being measured. Read a low IC50 as greater potency in that assay. As to `CC(C)(C#Cc1cccn2ncc(-c3ccc(-c4cnn(CC5(C#N)CC5)c4)cc3)c12)C(N)=O` [Compound P-0052, 4-(3-(4-(1-((1-cyanocyclopropyl)methyl)-1H-pyrazol-4-yl)phenyl)pyrazolo[1,5-a]pyridin-4-yl)-2,2-dimethylbut-3-ynamide], the IC50 in experiment [1] and in experiment [2] was 0.1 to 100 nM in each case.
Regarding `CS(=O)(=O)Nc1ccc2cc(-c3cnn4ccnc(C5=CCC(C#N)CC5)c34)ccc2c1` (stereo not shown) [Compound P-0166, N-(6-(4-(4-cyanocyclohex-1-en-1-yl)pyrazolo[1,5-a]pyrazin-3-yl)naphthalen-2-yl)methanesulfonamide], the IC50 in experiment [1] and in experiment [2] was 0.1 to 100 nM in each case.
`COc1ccc(-c2cnn3ccnc(C4=CCC(C(N)=O)CC4)c23)cn1` (stereo not shown) [Compound P-0155, 4-(3-(6-methoxypyridin-3-yl)pyrazolo[1,5-a]pyrazin-4-yl)cyclohex-3-ene-1-carboxamide]: the IC50 in experiment [1] and in experiment [2] was 100 to 1000 nM throughout.
As to `N#CC1CC=C(c2nccn3ncc(-c4ccnc(NC5CCCC5)c4)c23)CC1` (stereo not shown) [Compound P-0074], the IC50 in experiment [1] and in experiment [2] was 100 to 1000 nM in each case.
Consider `COc1ccc2cc(-c3cnn4ccnc(C5=CCC(C#N)CC5)c34)ccc2n1` (stereo not shown) [Compound P-0147, 4-(3-(2-methoxyquinolin-6-yl)pyrazolo[1,5-a]pyrazin-4-yl)cyclohex-3-ene-1-carbonitrile], for which the IC50 in experiment [1] and in experiment [2] was 0.1 to 100 nM throughout.
`Cn1cc(-c2ccc(-c3cnn4ccnc(C5CCC(C#N)CC5)c34)cc2)cn1` (stereo not shown) [Compound P-0059, (1s,4s)-4-(3-(4-(1-methyl-1H-pyrazol-4-yl)phenyl)pyrazolo[1,5-a]pyrazin-4-yl)cyclohexane-1-carbonitrile]: the IC50 in experiment [1] and in experiment [2] was 0.1 to 100 nM throughout.
Turning to `CC(C)(C#Cc1cccn2ncc(-c3ccc(-c4cnn(CCN5CCCC5)c4)cc3)c12)C(N)=O` [Compound P-0465, 2,2-dimethyl-4-(3-(4-(1-(2-(pyrrolidin-1-yl)ethyl)-1H-pyrazol-4-yl)phenyl)pyrazolo[1,5-a]pyridin-4-yl)but-3-ynamide], the IC50 in experiment [1] and in experiment [2] was 0.1 to 100 nM throughout.
For the molecule `CC(C)(O)Cn1ncc2cc(-c3cnc4[nH]ccc4c3C3=CCC(C#N)CC3)ccc21` (stereo not shown) [Compound P-0113], the IC50 in experiment [1] and in experiment [2] was 0.1 to 100 nM throughout.
Regarding `N#CC1CCC(c2nccn3ncc(-c4ccc(-c5cnn(CCF)c5)cc4)c23)CC1` (stereo not shown) [Compound P-0007, (1s,4s)-4-(3-(4-(1-(2-fluoroethyl)-1H-pyrazol-4-yl)phenyl)pyrazolo[1,5-a]pyrazin-4-yl)cyclohexane-1-carbonitrile], the IC50 in experiment [1] and in experiment [2] was 0.1 to 100 nM each time.
`Cn1cc(-c2ccc(-c3cnn4cccc(C#CC(C)(C)C#N)c34)cc2)cn1` [Compound P-0273, 2,2-dimethyl-4-(3-(4-(1-methyl-1H-pyrazol-4-yl)phenyl)pyrazolo[1,5-a]pyridin-4-yl)but-3-ynenitrile]: the IC50 in experiment [1] and in experiment [2] was 0.1 to 100 nM each time.
As to `Cc1ccc2cc(-c3cnn4ccnc(C5CCC(C#N)CC5)c34)ccc2n1` (stereo not shown) [Compound P-0187, 4-(3-(2-methylquinolin-6-yl)pyrazolo[1,5-a]pyrazin-4-yl)cyclohexane-1-carbonitrile], the half-maximal inhibitory concentration (IC50) in experiment [1] and in experiment [2] was 0.1 to 100 nM each time.
As to `Cc1ccc2cc(-c3cnc4[nH]ccc4c3C3=CCC(C#N)CC3)ccc2n1` (stereo not shown) [Compound P-0202, 4-(5-(2-methylquinolin-6-yl)-1H-pyrrolo[2,3-b]pyridin-4-yl)cyclohex-3-ene-1-carbonitrile], the IC50 in experiment [1] and in experiment [2] was 0.1 to 100 nM throughout.
`COc1ccc(-c2cnn3ccnc(C4CCC(C#N)CC4)c23)cc1C` (stereo not shown) [Compound P-0457, (1s,4s)-4-(3-(4-methoxy-3-methylphenyl)pyrazolo[1,5-a]pyrazin-4-yl)cyclohexane-1-carbonitrile]: the IC50 in experiment [1] and in experiment [2] was 0.1 to 100 nM each time.
On to `Cn1cc(-c2ccc(-c3cnn4cccc(C#CC5(O)CCC5)c34)cc2)cn1` [Compound P-0310, 1-((3-(4-(1-methyl-1H-pyrazol-4-yl)phenyl)pyrazolo[1,5-a]pyridin-4-yl)ethynyl)cyclobutan-1-ol], for which the IC50 in experiment [1] and in experiment [2] was 0.1 to 100 nM in each case.
Take `COCCn1cc(-c2ccc(-c3cnn4cccc(C#CC(C)(C)C(N)=O)c34)cc2)cn1` [Compound P-0469, 4-(3-(4-(1-(2-methoxyethyl)-1H-pyrazol-4-yl)phenyl)pyrazolo[1,5-a]pyridin-4-yl)-2,2-dimethylbut-3-ynamide]: the IC50 in experiment [1] and in experiment [2] was 0.1 to 100 nM in each case.
`O=C1NCCC12CCN(c1cccn3ncc(-c4ccc(OCCN5CCOCC5)cc4)c13)CC2` [Compound P-0135, 8-(3-(4-(2-morpholino-ethoxy)phenyl)pyrazolo[1,5-a]pyridin-4-yl)-2,8-diazaspiro[4.5]decan-1-one]: the IC50 in experiment [1] and in experiment [2] was 100 to 1000 nM in each case.
For the molecule `N#CC1CC=C(c2c(-c3ccc(-c4cnn(C(F)F)c4)cc3)cnc3[nH]ccc23)CC1` (stereo not shown) [Compound P-0270, 4-(5-(4-(1-(difluoromethyl)-1H-pyrazol-4-yl)phenyl)-1H-pyrrolo[2,3-b]pyridin-4-yl)cyclohex-3-ene-1-carbonitrile], the IC50 in experiment [1] and in experiment [2] was 0.1 to 100 nM in each case.
As to `Cn1cc(-c2ccc(-c3cnn4cccc(N5CCC6(CCNC6=O)CC5)c34)cc2)cn1` [Compound P-0170, 8-(3-(4-(1-methyl-1H-pyrazol-4-yl)phenyl)pyrazolo[1,5-a]pyridin-4-yl)-2,8-diazaspiro[4.5]decan-1-one], the IC50 in experiment [1] and in experiment [2] was 0.1 to 100 nM throughout.
With `NC(=O)C1CCC(c2cccn3ncc(-c4ccc(-c5cnn(C(F)F)c5)cc4)c23)CC1` (stereo not shown) [Compound P-0316, 4-(3-(4-(1-(difluoromethyl)-1H-pyrazol-4-yl)phenyl)pyrazolo[1,5-a]pyridin-4-yl)cyclohexane-1-carboxamide], the IC50 in experiment [1] and in experiment [2] was 0.1 to 100 nM in each case.
In the case of `CC(C)(C#Cc1nccn2ncc(-c3ccc4c(cnn4C(F)F)c3)c12)C(N)=O` [Compound P-0095, 4-(3-(1-(difluoromethyl)-1H-indazol-5-yl)pyrazolo[1,5-a]pyrazin-4-yl)-2,2-dimethylbut-3-ynamide], the IC50 in experiment [1] and in experiment [2] was 0.1 to 100 nM each time.
As for `N#CC1CCN(c2cccn3ncc(-c4ccc(NC(=O)OCc5ccccc5)cc4)c23)CC1` [Compound P-0259, benzyl (4-(4-(4-cyanopiperidin-1-yl)pyrazolo[1,5-a]pyridin-3-yl)phenyl)carbamate], the IC50 in experiment [1] and in experiment [2] was 100 to 1000 nM each time.
Take `Cc1cncc(-c2ccc(-c3cnn4cccc(C#CC(C)(C)O)c34)cc2)c1` [Compound P-0231, 2-methyl-4-(3-(4-(5-methylpyridin-3-yl)phenyl)pyrazolo[1,5-a]pyridin-4-yl)but-3-yn-2-ol]: the IC50 in experiment [1] and in experiment [2] was 100 to 1000 nM in each case.
With `Cn1cc(-c2ccc(-c3cnc4cccc(C5=CCC(C#N)CC5)n34)cc2)cn1` (stereo not shown) [Compound P-0445, 4-(3-(4-(1-methyl-1H-pyrazol-4-yl)phenyl)imidazo[1,2-a]pyridin-5-yl)cyclohex-3-ene-1-carbonitrile], the IC50 in experiment [1] and in experiment [2] was 0.1 to 100 nM each time.
With `CC(C)(O)Cn1cc(-c2ccc(-c3cnn4ccnc(C5CCC(C#N)CC5)c34)cc2Cl)cn1` (stereo not shown) [Compound P-0031, (1s,4s)-4-(3-(3-chloro-4-(1-(2-hydroxy-2-methylpropyl)-1H-pyrazol-4-yl)phenyl)pyrazolo[1,5-a]pyrazin-4-yl)cyclohexane-1-carbonitrile], the IC50 in experiment [1] and in experiment [2] was 0.1 to 100 nM each time.
Take `N#CC1CC=C(c2cccn3ncc(-c4ccc(-n5ccnn5)cc4)c23)CC1` (stereo not shown) [Compound P-0224, 4-(3-(4-(1H-1,2,3-triazol-1-yl)phenyl)pyrazolo[1,5-a]pyridin-4-yl)cyclohex-3-ene-1-carbonitrile]: the IC50 in experiment [1] and in experiment [2] was 0.1 to 100 nM each time.
Regarding `CC(C)(O)Cn1cc(-c2ccc(-c3cnn4ccnc(C5CCC(C#N)CC5)c34)cc2)cn1` (stereo not shown) [Compound P-0064, (1r,4r)-4-(3-(4-(1-(2-hydroxy-2-methylpropyl)-1H-pyrazol-4-yl)phenyl)pyrazolo[1,5-a]pyrazin-4-yl)cyclohexane-1-carbonitrile], the half-inhibitory concentration (IC50) in experiment [1] and in experiment [2] was 0.1 to 100 nM throughout.
As for `Cc1nc2cc(-c3cnn4ccnc(C5=CCC(C#N)CC5)c34)ccc2[nH]1` (stereo not shown) [Compound P-0056, 4-(3-(2-methyl-1H-benzo[d]imidazol-5-yl)pyrazolo[1,5-a]pyrazin-4-yl)cyclohex-3-ene-1-carbonitrile], the IC50 in experiment [1] and in experiment [2] was 0.1 to 100 nM each time.
For `CNC(=O)c1ccc2cc(-c3cnn4cccc(C5=CCC(C#N)CC5)c34)ccc2c1` (stereo not shown) [Compound P-0330, 6-(4-(4-cyanocyclohex-1-en-1-yl)pyrazolo[1,5-a]pyridin-3-yl)-N-methyl-2-naphthamide], the IC50 in experiment [1] and in experiment [2] was 0.1 to 100 nM in each case.
Take `CC(C)(O)Cn1cc2cc(-c3cnn4ccnc(C5=CCC(C#N)CC5)c34)ccc2n1` (stereo not shown) [Compound P-0106, 4-(3-(2-(2-hydroxy-2-methylpropyl)-2H-indazol-5-yl)pyrazolo[1,5-a]pyrazin-4-yl)cyclohex-3-ene-1-carbonitrile]: the IC50 in experiment [1] fell in the range of 100 to 1000 nM; in experiment [2] it was 0.1 to 100 nM.
